According to US10183014B2, “Ocular formulations for drug-delivery and protection of the anterior segment of the eye” (PanOptica, Inc., priority 2014, dated 2019):
Where “and” joins values, the source holds several entries; their conditions need not be identical. Equal entries are not always repeated. Where two headings read alike, the source gives them in different places.

What was measured:
[1] = Ocular toxicology studies (tolerability and ocular tissue concentrations); type: in vivo, Dutch-Belted rabbits; conditions: for concentration at 29 days: Dutch-Belted, topical, 0.3 %, 0.3% Ophthalmic Gel Drop (with and without benzylalkonium chloride), twice daily
From the text: (§1) Retinal function was normal in all test article and vehicle treated groups during full-field electroretinograms performed in rabbits.

ABL1 Y253F = ABL1 Y253F (Homo sapiens, UniProt P00519, Y253F); experiment: In vitro inhibition of tyrosine kinases; type: biochemical; conditions: read-out: Mean % Inhibition at 1 μM Compound-I; 1 μM (568.9 ng/mL)
PTK6 (Brk) = PTK6 (Brk) (Homo sapiens, UniProt Q13882); experiment: In vitro inhibition of tyrosine kinases; type: biochemical; conditions: read-out: Mean % Inhibition at 1 μM Compound-I; 1 μM (568.9 ng/mL)
EPHB-1 = EPHB-1 (Homo sapiens, UniProt P54762); experiment: In vitro inhibition of tyrosine kinases; type: biochemical; conditions: read-out: Mean % Inhibition at 1 μM Compound-I; 1 μM (568.9 ng/mL)
EPHB-4 = EPHB-4 (Homo sapiens, UniProt P54760); experiment: In vitro inhibition of tyrosine kinases; type: biochemical; conditions: read-out: Mean % Inhibition at 1 μM Compound-I; 1 μM (568.9 ng/mL)
LYN A = LYN A (Homo sapiens, UniProt P07948); experiment: In vitro inhibition of tyrosine kinases; type: biochemical; conditions: read-out: Mean % Inhibition at 1 μM Compound-I; 1 μM (568.9 ng/mL)
AURKB (Aurora B) = AURKB (Aurora B) (Homo sapiens, UniProt Q96GD4); experiment: In vitro inhibition of tyrosine kinases; type: biochemical; conditions: read-out: Mean % Inhibition at 1 μM Compound-I; 1 μM (568.9 ng/mL)
[2] = Ocular toxicology studies; type: in vivo, beagle dogs
From the text: as §1

SRC N1 = SRC N1 (Homo sapiens, UniProt P12931); experiment: In vitro inhibition of tyrosine kinases; type: biochemical; conditions: read-out: Mean % Inhibition at 1 μM Compound-I; 1 μM (568.9 ng/mL)
[3] = PK with topical ocular Compound-I in sodium phosphate-based Gel Drop; type: in vivo, Dutch-Belted rabbits; conditions: Dutch-Belted, rabbit, Gel Drop 6 mg/ml, 3x per day, 4 days, 1 hour after last dose
From the text: The Gel Drop of Compound-I was applied to eyes of Dutch-belted rabbits.

MAP4K5 (KHS1) = MAP4K5 (KHS1) (Homo sapiens, UniProt Q9Y4K4); experiment: In vitro inhibition of tyrosine kinases; type: biochemical; conditions: read-out: Mean % Inhibition at 1 μM Compound-I; 1 μM (568.9 ng/mL)
MAP4K4 (HGK) = MAP4K4 (HGK) (Homo sapiens, UniProt O95819); experiment: In vitro inhibition of tyrosine kinases; type: biochemical; conditions: read-out: Mean % Inhibition at 1 μM Compound-I; 1 μM (568.9 ng/mL)
HUVECs = experiment: Inhibition of VEGF-stimulated mitogenesis in HUVECs; type: cell-based; conditions: Homo sapiens, HUVEC
[4] = Ocular pharmacokinetics of formulations, Example 20-5; type: in vivo, Dutch Belted rabbits; conditions: Dutch Belted, rabbit, topical
Experimental: The study design (Table 19-1) consisted of forty-seven (47) Dutch Belted rabbits, each receiving a 30 μL bilateral topical ocular dose. Various suspension formulations of the present application were evaluated and compared against a cyclodextrin-based eye drops solution (Control Group 1, Table 19-1). Formula II or Compound-I was used in the test suspensions as well as the Eye Drops solution.
Ocular sampling occurred one hour following the first daily dose on Day 5 for all groups. Whole blood samples using K2EDTA as an anticoagulant were collected from all animals on Day 5, 1 hour post dose. The whole blood was placed on ice until samples were spun in a centrifuge to separate the plasma. Aqueous humor, conjunctiva, cornea, central retina, peripheral retina, central choroid, and peripheral choroid samples were collected following necropsy. Samples were then frozen at −70° C. or lower. For all Groups 1-15, plasma, central retina, central choroid, and cornea samples were assayed. For Group 5 only, samples were analyzed for Vitamin K3.
An analytical method for the analysis of Vitamin K3 was determined in plasma, central retina, central choroid, and cornea samples from Group 5 animals. A calibration curve prepared in control vitreous humor was used to determine the concentration of Vitamin K3. Internal standard (IS) responses were inconsistent for the central choroid and plasma samples. Thus, positive plasma results were likely due to the reduced IS response.

[5] = discomfort, inflammation, corneal thinning
[6] = ophthalmic gel drops, topical ocular dosing

Sequence of SRC N1 (P12931 1-542 isoform P12931-2): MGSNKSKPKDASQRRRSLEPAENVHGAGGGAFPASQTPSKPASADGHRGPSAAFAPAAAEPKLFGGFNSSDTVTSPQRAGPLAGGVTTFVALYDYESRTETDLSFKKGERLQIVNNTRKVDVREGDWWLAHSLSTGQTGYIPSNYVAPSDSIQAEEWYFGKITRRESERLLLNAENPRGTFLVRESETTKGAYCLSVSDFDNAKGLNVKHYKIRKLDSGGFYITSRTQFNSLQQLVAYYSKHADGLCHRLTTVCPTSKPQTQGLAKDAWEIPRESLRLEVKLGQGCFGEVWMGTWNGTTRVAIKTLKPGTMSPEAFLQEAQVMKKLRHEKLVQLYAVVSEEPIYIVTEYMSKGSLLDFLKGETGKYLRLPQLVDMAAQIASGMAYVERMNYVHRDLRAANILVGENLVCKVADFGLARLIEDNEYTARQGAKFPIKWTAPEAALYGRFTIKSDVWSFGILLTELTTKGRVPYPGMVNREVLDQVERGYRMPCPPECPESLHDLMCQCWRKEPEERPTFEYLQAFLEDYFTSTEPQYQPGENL
Sequence of LYN A (P07948 whole entry, species assumed): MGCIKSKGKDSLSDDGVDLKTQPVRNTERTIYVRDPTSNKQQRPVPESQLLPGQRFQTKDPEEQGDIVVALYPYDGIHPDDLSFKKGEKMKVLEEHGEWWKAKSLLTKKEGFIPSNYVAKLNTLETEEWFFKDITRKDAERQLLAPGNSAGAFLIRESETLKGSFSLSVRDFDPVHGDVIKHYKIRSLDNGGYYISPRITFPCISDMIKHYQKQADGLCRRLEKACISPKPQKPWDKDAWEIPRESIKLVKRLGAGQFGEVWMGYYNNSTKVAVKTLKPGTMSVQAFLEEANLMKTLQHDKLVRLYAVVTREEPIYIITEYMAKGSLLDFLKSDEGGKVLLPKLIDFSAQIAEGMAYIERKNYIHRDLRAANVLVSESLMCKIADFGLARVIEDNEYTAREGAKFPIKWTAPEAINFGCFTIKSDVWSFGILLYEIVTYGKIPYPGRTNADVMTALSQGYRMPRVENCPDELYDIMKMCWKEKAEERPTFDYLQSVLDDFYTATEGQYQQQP
Sequence of MAP4K4 (HGK) (O95819 whole entry, species assumed): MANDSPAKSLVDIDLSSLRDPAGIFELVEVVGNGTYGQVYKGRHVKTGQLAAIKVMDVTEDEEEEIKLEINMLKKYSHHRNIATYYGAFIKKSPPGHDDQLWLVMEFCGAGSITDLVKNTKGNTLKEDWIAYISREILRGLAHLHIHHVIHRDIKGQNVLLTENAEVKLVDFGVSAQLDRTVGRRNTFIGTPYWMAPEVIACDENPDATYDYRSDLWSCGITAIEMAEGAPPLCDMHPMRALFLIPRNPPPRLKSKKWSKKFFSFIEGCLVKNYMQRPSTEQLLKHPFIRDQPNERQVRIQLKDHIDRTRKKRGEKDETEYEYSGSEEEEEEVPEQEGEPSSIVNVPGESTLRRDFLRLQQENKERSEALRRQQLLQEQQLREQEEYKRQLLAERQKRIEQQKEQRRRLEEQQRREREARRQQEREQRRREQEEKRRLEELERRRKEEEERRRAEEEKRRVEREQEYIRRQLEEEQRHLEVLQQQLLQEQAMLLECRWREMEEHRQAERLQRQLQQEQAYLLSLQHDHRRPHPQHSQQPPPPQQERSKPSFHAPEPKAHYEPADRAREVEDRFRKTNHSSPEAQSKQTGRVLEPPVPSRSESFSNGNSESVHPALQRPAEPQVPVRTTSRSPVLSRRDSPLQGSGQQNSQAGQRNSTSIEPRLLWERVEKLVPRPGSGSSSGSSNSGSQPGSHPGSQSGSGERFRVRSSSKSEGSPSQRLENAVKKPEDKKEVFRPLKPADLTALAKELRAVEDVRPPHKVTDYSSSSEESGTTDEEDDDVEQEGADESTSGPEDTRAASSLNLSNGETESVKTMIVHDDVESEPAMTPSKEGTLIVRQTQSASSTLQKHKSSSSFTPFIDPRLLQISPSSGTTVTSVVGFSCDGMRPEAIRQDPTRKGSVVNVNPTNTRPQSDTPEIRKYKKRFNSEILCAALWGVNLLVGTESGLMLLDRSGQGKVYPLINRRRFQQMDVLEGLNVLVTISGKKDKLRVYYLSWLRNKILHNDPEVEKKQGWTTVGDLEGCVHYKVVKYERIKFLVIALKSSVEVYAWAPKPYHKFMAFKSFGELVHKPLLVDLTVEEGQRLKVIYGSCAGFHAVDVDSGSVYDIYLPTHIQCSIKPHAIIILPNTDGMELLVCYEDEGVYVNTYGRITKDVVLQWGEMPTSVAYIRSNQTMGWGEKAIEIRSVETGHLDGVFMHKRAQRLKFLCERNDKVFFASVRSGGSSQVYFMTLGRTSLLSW
Sequence of AURKB (Aurora B) (Q96GD4 whole entry, species assumed): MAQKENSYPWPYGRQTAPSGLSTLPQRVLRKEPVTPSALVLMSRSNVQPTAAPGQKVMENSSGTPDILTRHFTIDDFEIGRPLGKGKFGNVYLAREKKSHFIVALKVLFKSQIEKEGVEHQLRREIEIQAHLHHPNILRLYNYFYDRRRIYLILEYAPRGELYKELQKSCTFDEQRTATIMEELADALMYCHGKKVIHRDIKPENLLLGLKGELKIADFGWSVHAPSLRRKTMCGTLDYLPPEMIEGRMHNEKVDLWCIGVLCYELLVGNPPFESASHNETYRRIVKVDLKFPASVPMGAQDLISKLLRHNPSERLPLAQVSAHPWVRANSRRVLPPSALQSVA
Sequence of MAP4K5 (KHS1) (Q9Y4K4 whole entry, species assumed): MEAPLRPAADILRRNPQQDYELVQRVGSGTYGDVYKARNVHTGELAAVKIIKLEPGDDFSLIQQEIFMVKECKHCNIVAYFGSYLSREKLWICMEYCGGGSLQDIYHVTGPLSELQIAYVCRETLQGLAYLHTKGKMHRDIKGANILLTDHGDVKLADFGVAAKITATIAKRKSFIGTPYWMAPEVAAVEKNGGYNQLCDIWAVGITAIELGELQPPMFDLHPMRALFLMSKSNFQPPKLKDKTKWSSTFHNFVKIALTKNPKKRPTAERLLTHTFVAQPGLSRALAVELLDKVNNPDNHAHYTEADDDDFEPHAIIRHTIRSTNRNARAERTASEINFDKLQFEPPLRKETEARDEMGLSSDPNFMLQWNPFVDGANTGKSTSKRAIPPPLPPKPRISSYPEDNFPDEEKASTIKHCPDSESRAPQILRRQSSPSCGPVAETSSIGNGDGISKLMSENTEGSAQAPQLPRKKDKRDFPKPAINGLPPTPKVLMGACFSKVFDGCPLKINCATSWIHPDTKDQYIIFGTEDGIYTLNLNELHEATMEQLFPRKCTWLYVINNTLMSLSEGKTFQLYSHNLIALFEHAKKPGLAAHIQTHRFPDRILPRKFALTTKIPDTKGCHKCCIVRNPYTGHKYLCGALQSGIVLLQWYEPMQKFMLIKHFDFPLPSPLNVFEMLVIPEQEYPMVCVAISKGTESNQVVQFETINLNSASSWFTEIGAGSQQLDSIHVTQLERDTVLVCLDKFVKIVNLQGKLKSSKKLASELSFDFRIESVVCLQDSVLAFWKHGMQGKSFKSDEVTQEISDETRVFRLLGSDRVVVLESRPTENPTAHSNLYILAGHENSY
Sequence of PTK6 (Brk) (Q13882 whole entry, species assumed): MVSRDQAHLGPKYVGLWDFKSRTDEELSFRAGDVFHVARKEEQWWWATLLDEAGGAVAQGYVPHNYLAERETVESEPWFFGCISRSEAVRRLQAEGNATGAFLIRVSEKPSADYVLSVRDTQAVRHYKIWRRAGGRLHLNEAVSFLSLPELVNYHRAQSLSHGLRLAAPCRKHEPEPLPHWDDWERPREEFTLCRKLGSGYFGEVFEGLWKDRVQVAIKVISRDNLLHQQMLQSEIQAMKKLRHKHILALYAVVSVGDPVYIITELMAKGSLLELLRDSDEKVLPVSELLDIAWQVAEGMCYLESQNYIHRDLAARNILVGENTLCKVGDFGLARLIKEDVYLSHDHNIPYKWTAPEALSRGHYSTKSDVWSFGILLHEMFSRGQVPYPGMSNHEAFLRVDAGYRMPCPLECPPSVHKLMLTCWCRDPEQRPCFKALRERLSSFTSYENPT
Sequence of EPHB-1 (P54762 18-984, species assumed): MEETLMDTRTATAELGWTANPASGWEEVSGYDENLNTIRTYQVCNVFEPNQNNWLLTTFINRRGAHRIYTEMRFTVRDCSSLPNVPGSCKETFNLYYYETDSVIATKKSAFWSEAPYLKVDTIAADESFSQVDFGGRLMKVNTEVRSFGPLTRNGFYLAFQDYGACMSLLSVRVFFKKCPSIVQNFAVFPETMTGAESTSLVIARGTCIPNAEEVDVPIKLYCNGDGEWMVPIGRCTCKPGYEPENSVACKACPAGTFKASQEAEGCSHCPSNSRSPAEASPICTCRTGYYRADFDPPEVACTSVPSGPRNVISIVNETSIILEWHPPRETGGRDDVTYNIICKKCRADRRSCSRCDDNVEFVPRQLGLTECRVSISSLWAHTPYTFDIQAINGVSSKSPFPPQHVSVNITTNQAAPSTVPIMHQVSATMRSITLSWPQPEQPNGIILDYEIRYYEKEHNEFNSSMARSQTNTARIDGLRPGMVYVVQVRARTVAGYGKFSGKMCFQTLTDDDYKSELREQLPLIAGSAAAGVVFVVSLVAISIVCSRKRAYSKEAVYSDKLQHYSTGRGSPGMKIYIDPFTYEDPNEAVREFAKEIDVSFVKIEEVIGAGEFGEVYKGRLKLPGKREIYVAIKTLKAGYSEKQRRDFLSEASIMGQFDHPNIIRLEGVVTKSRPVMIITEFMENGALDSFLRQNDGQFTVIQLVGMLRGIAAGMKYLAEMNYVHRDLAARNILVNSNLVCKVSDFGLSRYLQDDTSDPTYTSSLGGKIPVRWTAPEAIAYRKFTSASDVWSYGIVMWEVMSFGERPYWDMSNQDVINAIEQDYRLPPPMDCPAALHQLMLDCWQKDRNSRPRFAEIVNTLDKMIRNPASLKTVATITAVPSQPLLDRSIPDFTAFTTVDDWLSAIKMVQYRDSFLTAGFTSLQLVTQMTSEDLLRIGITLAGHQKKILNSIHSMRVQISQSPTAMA

Cl.NC(=O)c1c(OCc2c(F)cc(Br)cc2F)nsc1NC(=O)NCCCCN1CCCC1 [Compound-I, 3-[(4-bromo-2,6-difluorophenyl)methoxy]-5-[[[[4-(1-pyrrolidinyl)butyl]amino]carbonyl]amino]-4-isothiazolecarboxamide hydrochloride]
Microscopic evaluation of eyes ([1]; 0.3% w/v Tris-based suspension twice daily for 30 days): considered normal | Findings attributed to test-article or vehicle ([1]; 0.6% cyclodextrin-based solution, 30 days topical ocular dosing): no untoward findings | concentration at 29 days ([1]; rabbit, central choroid, read-out: Central Choroid [Compound I]): 340 to 496 nM | concentration at 29 days ([1]; rabbit, cornea, read-out: Cornea [Compound I]): 236000 to 260000 nM | Retinal function (full-field electroretinograms) ([1]; all test article groups): normal | Cornea concentration above which ocular side effects were more consistently observed [1, 5]: exceeded 100 μM | Corneal tissue exposure [1, 6]: ≥ 100 µM | Corneal concentration, Gel Drop compared to Tris-based suspensions ([1]; rabbit, in vivo): fifty-fold to hundred-fold higher | Corneal concentration, Gel Drop compared to cyclodextrin based solution ([1]; rabbit, in vivo): five-fold to fifteen-fold higher | Ocular tolerability (clinical ophthalmic examinations) ([1]; rabbit, in vivo): well tolerated | Reduction of corneal exposure versus Gel Drop ([1]; suspension-based and cyclodextrin formulations): 10-100 × | Reduction in corneal concentrations, cyclodextrin-based solution versus equimolar Gel Drop ([1]; topical ocular dosing 1 to 30 days, hydrochloride): ~10 fold | inhibition at 1 µM (ABL1 Y253F): 93% | inhibition at 1 µM (PTK6 (Brk)): 88% | inhibition at 1 µM (EPHB-1): 83% | inhibition at 1 µM (EPHB-4): 80% | inhibition at 1 µM (LYN A): 81% | inhibition at 1 µM (AURKB (Aurora B)): 82% | Cornea concentration above which ocular side effects were more consistently observed [2, 5]: exceeded 100 μM | Corneal tissue exposure [2, 6]: ≥ 100 µM | inhibition at 1 µM (SRC N1): 83% | concentration at 1 h ([3]; aqueous humor (AH), read-out: Mean [AH]): 50.9 nM | concentration at 1 h ([3]; plasma, read-out: [plasma]): 12.5 nM | inhibition at 1 µM (MAP4K5 (KHS1)): 94% | inhibition at 1 µM (MAP4K4 (HGK)): 100% | IC50 (HUVECs): 14.1 nM and 0.008 µg/mL | concentration at 1 h ([4]; central choroid, 1 mg/mL (30 μL per eye, bilateral), Group 7: 1 mg/mL suspension, 50 μm particles, TRIS 0.60%, glycerol 2%, HEC 0.2%, HPMC 0.08%, Vitamin K3 1 μM, pH 6, QD for 4 days, 1 hr post dose on Day 5, read-out: Central Choroid concentration): 59 nM | concentration at 1 h ([4]; central choroid, 2 mg/mL (30 μL per eye, bilateral), Group 9: 2 mg/mL suspension, 50 μm particles, TRIS 0.60%, glycerol 2%, HEC 0.2%, HPMC 0.08%, Vitamin K3 1 μM, pH 6, QD for 4 days, 1 hr post dose on Day 5, read-out: Central Choroid concentration): 90.8 nM | concentration at 1 h ([4]; central choroid, 4 mg/mL (30 μL per eye, bilateral), Group 5: 4 mg/mL suspension (Control), 30 μm particles (Table 19-1) / Native (≈50) (Table 19-2), TRIS 0.60%, glycerol 2%, HEC 0.2%, HPMC 0.08%, Vitamin K3 1 μM, pH 6, QD for 4 days, 1 hr post dose on Day 5, read-out: Central Choroid concentration): 129 nM | concentration at 1 h ([4]; central choroid, 4 mg/mL, 30 μL per eye, pH 6, Group 1: 4 mg/mL Ophthalmic Solution, pH 6 (Control), QD for 4 days, 1 hr post dose on Day 5, read-out: Central Choroid concentration): 129 nM | concentration at 1 h ([4]; central choroid, 4 mg/mL, 30 μL per eye, pH 6, read-out: Central Choroid concentration): 151 nM | concentration at 1 h ([4]; central choroid, 30 μL per eye, Group 10: 2 mg/mL suspension, 50 μm particles, TRIS 0.60%, glycerol 2%, HEC 0.2%, HPMC 0.08%, Vitamin K3 1 μM, pH 6, BID for 4 days, 1 hr post dose on Day 5, read-out: Central Choroid concentration): 116 nM | concentration at 1 h ([4]; central choroid, 30 μL per eye, Group 11: 6 mg/mL suspension, 50 μm particles, TRIS 0.60%, glycerol 2%, HEC 0.2%, HPMC 0.08%, Vitamin K3 1 μM, pH 6, QD for 4 days, 1 hr post dose on Day 5, read-out: Central Choroid concentration): 148 nM | concentration at 1 h ([4]; central choroid, 30 μL per eye, Group 12: 10 mg/mL suspension, 50 μm particles, TRIS 0.60%, glycerol 2%, HEC 0.2%, HPMC 0.08%, Vitamin K3 1 μM, pH 6, QD for 4 days, 1 hr post dose on Day 5, read-out: Central Choroid concentration): 199 nM | concentration at 1 h ([4]; central retina, 1 mg/mL (30 μL per eye, bilateral), Group 7: 1 mg/mL suspension, 50 μm particles, TRIS 0.60%, glycerol 2%, HEC 0.2%, HPMC 0.08%, Vitamin K3 1 μM, pH 6, QD for 4 days, 1 hr post dose on Day 5, read-out: Central Retina concentration): 25.6 nM | concentration at 1 h ([4]; central retina, 2 mg/mL (30 μL per eye, bilateral), Group 9: 2 mg/mL suspension, 50 μm particles, TRIS 0.60%, glycerol 2%, HEC 0.2%, HPMC 0.08%, Vitamin K3 1 μM, pH 6, QD for 4 days, 1 hr post dose on Day 5, read-out: Central Retina concentration): 63.4 nM | concentration at 1 h ([4]; central retina, 4 mg/mL (30 μL per eye, bilateral), Group 5: 4 mg/mL suspension (Control), 30 μm particles (Table 19-1) / Native (≈50) (Table 19-2), TRIS 0.60%, glycerol 2%, HEC 0.2%, HPMC 0.08%, Vitamin K3 1 μM, pH 6, QD for 4 days, 1 hr post dose on Day 5, read-out: Central Retina concentration): 44.2 nM | concentration at 1 h ([4]; central retina, 4 mg/mL, 30 μL per eye, pH 6, Group 1: 4 mg/mL Ophthalmic Solution, pH 6 (Control), QD for 4 days, 1 hr post dose on Day 5, read-out: Central Retina concentration): 55.1 nM | concentration at 1 h ([4]; central retina, 30 μL per eye, Group 11: 6 mg/mL suspension, 50 μm particles, TRIS 0.60%, glycerol 2%, HEC 0.2%, HPMC 0.08%, Vitamin K3 1 μM, pH 6, QD for 4 days, 1 hr post dose on Day 5, read-out: Central Retina concentration): 91.5 nM | concentration at 1 h ([4]; central retina, 30 μL per eye, Group 12: 10 mg/mL suspension, 50 μm particles, TRIS 0.60%, glycerol 2%, HEC 0.2%, HPMC 0.08%, Vitamin K3 1 μM, pH 6, QD for 4 days, 1 hr post dose on Day 5, read-out: Central Retina concentration): 114 nM | concentration at 1 h ([4]; cornea, 1 mg/mL (30 μL per eye, bilateral), Group 7: 1 mg/mL suspension, 50 μm particles, TRIS 0.60%, glycerol 2%, HEC 0.2%, HPMC 0.08%, Vitamin K3 1 μM, pH 6, QD for 4 days, 1 hr post dose on Day 5, read-out: Cornea concentration): 1240 nM | concentration at 1 h ([4]; cornea, 2 mg/mL (30 μL per eye, bilateral), Group 9: 2 mg/mL suspension, 50 μm particles, TRIS 0.60%, glycerol 2%, HEC 0.2%, HPMC 0.08%, Vitamin K3 1 μM, pH 6, QD for 4 days, 1 hr post dose on Day 5, read-out: Cornea concentration): 2280 nM | concentration at 1 h ([4]; cornea, 4 mg/mL (30 μL per eye, bilateral), Group 5: 4 mg/mL suspension (Control), 30 μm particles (Table 19-1) / Native (≈50) (Table 19-2), TRIS 0.60%, glycerol 2%, HEC 0.2%, HPMC 0.08%, Vitamin K3 1 μM, pH 6, QD for 4 days, 1 hr post dose on Day 5, read-out: Cornea concentration): 4470 nM
